From the supplement of paper PMC10307832

Compound: O=C(CCCCCCC(=O)Nc1ccccc1)NO [Vorinostat] + CC1(C)CCC(c2ccc(Cl)cc2)=C(CN2CCN(c3ccc(C(=O)NS(=O)(=O)c4ccc(N[C@H](CCN5CCOCC5)CSc5ccccc5)c(S(=O)(=O)C(F)(F)F)c4)cc3)CC2)C1 [Navitoclax] (partner 0.5 µM)
Assay: relative viability (nuclei count vs DMSO), 5 days (fraction); higher = more cells survive
Method in brief: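 Five library-drug doses in √10 steps were combined with a fixed anchor-drug dose, or a single drug was given alone, by pin tool to lung cancer cell lines in 1536-well plates the day after seeding. Nuclei were stained and counted after 5 days. Relative viability is the nuclei count in treated wells over that in vehicle wells, taken as the median of duplicate plates.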

| Cell Line | relative viability (first compound 0.253 µM) | relative viability (first compound 0.8 µM) | relative viability (first compound 2.53 µM) | relative viability (first compound 8 µM) |
| --- | --- | --- | --- | --- |
| NCI-H838 | 1.34 | 1.15 | 0.395 | 0.195 |
| HCC-78 | 0.711 | 0.324 | 0.15 | 0.116 |
| NCI-H2170 | 0.706 | 0.481 | 0.216 | 0.172 |
| NCI-H2085 | 1.18 | 1.02 | 0.643 | 0.269 |
| NCI-H2228 | 0.953 | 0.809 | 0.473 | 0.132 |
| PC-14 | 1.16 | 0.985 | 0.198 | 0.091 |
| A-427 | 1.06 | 0.906 | 0.812 | 0.171 |
| NCI-H1755 | 1.01 | 0.98 | 0.369 | 0.215 |
| NCI-H1666 | 0.845 | 0.652 | 0.322 | 0.235 |
| LOU-NH91 | 0.791 | 0.568 | 0.313 | 0.233 |
| HARA | 1.17 | 1.16 | 0.606 | 0.086 |
| NCI-H441 | 0.464 | 0.536 | 0.164 | 0.184 |
| HCC-44 | 0.986 | 0.967 | 0.542 | 0.137 |
| NCI-H460 | 1.26 | 0.913 | 0.0765 | 0.0108 |
| NCI-H1395 | 1.14 | 1.26 | 0.693 | 0.387 |
| IA-LM | 0.791 | 0.597 | 0.235 | 0.0188 |
| NCI-H596 | 0.943 | 0.942 | 0.279 | 0.145 |

| Cell Line | relative viability (first compound 0.253 µM) | relative viability (first compound 0.8 µM) | relative viability (first compound 2.53 µM) | relative viability (first compound 8 µM) |
| --- | --- | --- | --- | --- |
| NCI-H1651 | 1.12 | 0.732 | 0.0917 | 0.0643 |
| EKVX | 0.955 | 1.13 | 0.588 | 0.143 |
| EPLC-272H | 0.984 | 1 | 0.242 | 0.0967 |
| NCI-H2023 | 1.08 | 0.91 | 0.449 | 0.0939 |
| NCI-H1734 | 0.943 | 0.76 | 0.269 | 0.0823 |
| NCI-H2405 | 1.13 | 0.771 | 0.0779 | 0.0557 |
| LXF-289 | 1.04 | 0.963 | 0.279 | 0.0872 |
| HCC-827 | 1.04 | 1.03 | 0.818 | 0.195 |
| RERF-LC-KJ | 1.25 | 0.754 | 0.251 | 0.291 |
| NCI-H1355 | 1.05 | 0.876 | 0.506 | 0.166 |
| NCI-H1792 | 0.763 | 0.601 | 0.392 | 0.0388 |
| NCI-H647 | 1.14 | 0.759 | 0.149 | 0.0271 |
| LK-2 | 0.939 | 0.585 | 0.169 | 0.0764 |
| H3255 | 0.595 | 0.598 | 0.2 | 0.0872 |
| NCI-H1915 | 0.792 | 0.762 | 0.479 | 0.0857 |
| NCI-H3122 | 1.09 | 1.08 | 0.959 | 0.184 |
